The experiment relates to Hepatocellular Carcinoma (HCC) and Intrahepatic Cholangiocarcinoma (ICC). In words: Exhaustive Cox proportional hazards (ECPH) model on real-world survival data of drug combination groups. Type of experiment: in vivo, human. The note with it: Cox PH.
Where [1] appears, read: Regorafenib x Lenvatinib groups (Contingency Table B).
The mark [2] stands for this setting: Sorafenib x Lenvatinib groups (Contingency Table A).

Excerpt: Then, a novel exhaustive Cox proportional hazards model (ECPH) model is used to evaluate all possible drug combinations with respect to their efficacy in prolonging patients' lives. In terms of efficacy, there can be three types of drug interaction: additive, synergistic, and antagonistic.
The approach used in the present disclosure further extends the CPH model. In an example process, drugs used for fewer than one treatment cycle or the number of patients in any variables less than 15 were removed. Then, a 2×2 contingency table is set up, in which rows are defined by every unique genomic or clinical variable, and the columns are defined by drug variable (See Table 3 as an illustration). Then the CPH model (as described in “The Robust Inference for the Cox Proportional Hazards Model”, D. Y. Lin &L. J. Wei, Journal of the Am. Stat. Assoc., pp. 1074-1078, 1989) is used to calculate independent risk factors, cumulative hazard-ratios, and p-values for each drug combination table.
Additive combination definition: The HR score of the drug A+ plus factor B+ group is between the other two treatment groups (A+B− and A−B+). The P-value of the drug A+ plus factor B+ group is not statistically significant compared with the other two treatment groups (A+B− and A−B+).
Synergistic combination definition: The HR score of the drug A+ plus factor B+ group is smaller than the other two treatment groups (A+B− and A−B+). […] The drug A+ plus factor B+ group is the statistically independent variable of the other two treatment groups (A+B− and A−B+).
In this example, data were collected and analyzed in the following steps:
(2) Real-world clinical electronic health records (EHRs) collection, clinical data entry and l long-term follow-up, according to the flowchart shown in FIG. 4.
(3) Comprehensive genomic data is matched with real-world treatment patterns and clinical outcomes feature database and analysis workflow, as shown in FIG. 5.
(4) A large one-hot encoding matrix(˜10,000*10,000) of comprehensive genomic and clinical factors. Based on the one-hot encoding matrix, the combined effects of all factors such as: age, gender, gene mutation, and drug treatment can be obtained.
(5) Applying exhaustive Cox proportional hazards model (ECPH) model
a. Patients are divided into four categories based on the combined use of the two drugs. For an example: Patients treated with Lenvatinib and without Sorafenib were defined as the Lenvatinib treatment group. Patients treated with Sorafenib and without Lenvatinib were defined as the Sorafenib treatment group. Patients treated with Sorafenib and Lenvatinib were defined as the Sorafenib-Lenvatinib treatment group. Patients treated without Sorafenib and Lenvatinib were defined as Sorafenib-Lenvatinib free treatment group.
b. 2×2 contingency tables were calculated for all possible drug combinations pairs: Millions of possible combinations of Lenvatinib.
c. Cox PH model (The Robust Inference for the Cox Proportional Hazards Model D. Y. Lin &L. J. Wei Pages 1074-1078) was used to calculate independent risk factors, cumulative hazard-ratios, and p-values for each drug combination table. […] It can be estimated as follow: h(t)=h0(t)×exp(b1x1+b2x2+ . . . +bpxp) where, • t represents the survival time. • h(t) is the hazard function determined by a set of p covariates (x1, x2, . . . , xp) • the coefficients (b1, b2, . . . , bp) measure the impact (i.e., the effect size) of covariates. • the term h0 is referred to the baseline hazard.

Consider `COc1cc2nccc(Oc3ccc(NC(=O)NC4CC4)c(Cl)c3)c2cc1C(N)=O` [Lenvatinib], for which the “HR (hazard ratio)” value is on record as 1.00 (PD-1/PD-L1 x Lenvatinib groups (Contingency Table C), Chinese HCC and ICC patients); 0.74 under setting [1]; 0.56 under setting [2].
Regarding `CNC(=O)c1cc(Oc2ccc(NC(=O)Nc3ccc(Cl)c(C(F)(F)F)c3)c(F)c2)ccn1` [Regorafenib], under setting [1], the “HR (hazard ratio)” value was found to be 0.99.
`CNC(=O)c1cc(Oc2ccc(NC(=O)Nc3ccc(Cl)c(C(F)(F)F)c3)cc2)ccn1` [Sorafenib]: under setting [2], the “HR (hazard ratio)” value came out at 0.76.

(Values after patent US20230245787A1, “METHODS FOR PREDICTING SYNERGISTIC DRUG COMBINATION” (GenomiCare Biotechnology (Shanghai) Co., Ltd, priority 2020, published 2023).)
